Experimental data: patent publication US10947271B2, “Antibacterial agents” (THE UNIVERSITY OF QUEENSLAND, priority 2014, dated 2021)

Legend:
[1] = tested on: MRSA (Strain ATCC 43300); assay: Murine thigh infection model (MRSA); assay type: in vivo, Staphylococcus aureus; conditions: neutropenic CD1 mice
Description: Summary: Adult (8 week old) female CD1 mice were made neutropenic by two injections of cyclophosphamide 4 days and 1 day prior to infection. An inoculum of 10^5 cfu MRSA (Strain ATCC 43300) was injected intramuscularly into both left and right thighs of all mice. […] After an additional two hours, a 50 μL sample of blood was obtained from the tail bleed to analyse for presence of antibiotic compound. […] Thighs were then removed, weighed and homogenised in a fixed volume of saline. The homogenate solution was filtered, diluted and seeded onto agar plates, which were incubated overnight at 37° C. Colony counts were used to establish the cfu in the thigh homogenates, the cfu/thigh, and the cfu/g of thigh.
Compound preparation: Cyclophosphamide monohydrate (Sigma) was dissolved in sterile saline to a concentration of 30 mg/mL. Likewise, vancomycin (Sigma) and MCC compounds were also dissolved in sterile saline to a final concentration of 60 mg/mL and 18.5 mg/mL respectively. All compounds were prepared in low binding Eppendorf tubes and kept at −20° C. until used.
In vivo experimental assay: Eight week old female outbred CD1 mice (UQBR-AIBN) were rendered neutropenic by injecting two doses of cyclophosphamide intraperitoneally 4 days (150 mg/kg) and 1 day (100 mg/kg) prior to experimental infection. The infection model using MRSA was established by intramuscular injection of 50 μL of early-log-phase bacterial MRSA suspension (around 2×10^6 cfu/mL) in saline into both thigh muscles. […] Untreated animals received equivalent volume of saline (Baxter). The mice were monitored for signs of normal behaviour (i.e. grooming, eating, drinking, sleeping, and alertness) during and following dosing. Two hours after saline/antibiotic treatment, 0.05 mL of blood was collected by tail incision. 24 hours after MRSA infection, mice were euthanized and blood collected from the heart by cardiac puncture (saline group) or by tail incision (Vancomycin and MCC compound treated groups) as outlined in FIG. 1. For each mouse, both thighs were collected aseptically by cutting the leg at the hip and knee, placed in 10 mL of cold sterile saline and the individual weight of each thigh recorded.
Preparation of injectable MRSA solution: An MRSA subculture bacterial isolate (ATCC43300) was taken from the storage at −80° C. and freshly seeded on agar plates for overnight (O/N) growth. From the O/N culture preparation, a single colony was diluted into 10-12 mL of Mueller Hinton broth (MHB) and incubated O/N at 37° C. A log-phase subculture was obtained by adding 100 μL of O/N subculture in 10 mL MHB and incubated for a further 2-3 hours. Finally, the OD600 value of the bacterial suspension was determined and the colony forming units per millilitre (cfu/mL) extrapolated. A full dilution of the bacterial cell suspension in saline was achieved by washing (3220×g for 10 min) and the OD600 in saline determined. The suspension was then diluted out accordingly in order to achieve a 2×10^6 cfu/mL solution (10^5 cfu in 50 μL/thigh).
Thus, 10 μL of the injectable MRSA suspension was diluted down to 10-1000 fold, each dilution plated out onto agar plates and incubated at 37° C. for 24 hours.
Thigh homogenates and CFU determination: Thighs were homogenized at 20,000 rpm for 15 seconds using a Polytron MR2500E using a […] probe (all Kinematica).

[2] = tested on: Staphylococcus aureus MRSA ATCC 43300; assay: MIC assay, S. aureus MRSA ATCC 43300; assay type: cell-based; conditions: 24 h incubation, visual reading
How it was run: (§1)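 Overnight MHB cultures at 37° C were diluted 40-fold and grown 2-3 hrs to mid-log, then added at 5×10e5 CFU/mL to twofold compound dilutions (8 to 0.003 μg/ml). Plates were incubated 24 h at 37° C and MIC scored by eye.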

[3] = tested on: Enterococcus faecium MDR Van A ATCC 51559; assay: MIC assay, E. faecium MDR Van A ATCC 51559; assay type: cell-based; conditions: 24 h incubation, visual reading
How it was run: as §1

[4] = tested on: Streptococcus pneumoniae MDR ATCC 700677; assay: MIC assay, S. pneumoniae MDR ATCC 700677; assay type: cell-based; conditions: 24 h incubation, visual reading
How it was run: as §1

[5] = single subcutaneous dose 10 mg/kg

## CCCCCCCC(O)CC(=O)N[C@@H](CCCCN)C(=O)N[C@@H](CCCCN)C(=O)NCCCNC(=O)[C@H]1NC(=O)[C@H]2NC(=O)[C@H](NC(=O)[C@@H]3NC(=O)[C@H](CC(N)=O)NC(=O)[C@H](NC(=O)[C@@H](CC(C)C)NC)[C@H](O)c4ccc(c(Cl)c4)Oc4cc3cc(c4O[C@@H]3O[C@H](CO)[C@@H](O)[C@H](O)[C@H]3O[C@H]3C[C@](C)(N)[C@H](O)[C@H](C)O3)Oc3ccc(cc3Cl)[C@H]2O)c2ccc(O)c(c2)-c2c(O)cc(O)cc21 (stereo partly shown) [MCC_005483]
[1]; [5]
  Average Reduction log Δcfu MRSA/thigh after 26 h: xxx (xxx = 4-6)
[2]
  Minimum Inhibitory Concentration (MIC) Staph. aureus ATCC43300: xxxx (xxxx = 0.01-<0.1)
[3]
  Minimum Inhibitory Concentration (MIC) E. faecium ATCC51559: x (x = >4)
[4]
  Minimum Inhibitory Concentration (MIC) S. pneumoniae ATCC 700677: xxxx (xxxx = 0.01-<0.1)

## CCCCCCCCC(=O)N[C@@H](CCCCN)C(=O)N[C@@H](CCCCNC(=O)[C@H]1NC(=O)[C@H]2NC(=O)[C@H](NC(=O)[C@@H]3NC(=O)[C@H](CC(N)=O)NC(=O)[C@H](NC(=O)[C@@H](CC(C)C)NC)[C@H](O)c4ccc(c(Cl)c4)Oc4cc3cc(c4O[C@@H]3O[C@H](CO)[C@@H](O)[C@H](O)[C@H]3O[C@H]3C[C@](C)(N)[C@H](O)[C@H](C)O3)Oc3ccc(cc3Cl)[C@H]2O)c2ccc(O)c(c2)-c2c(O)cc(O)cc21)C(=O)O [MCC_005223]
[1]; [5]
  Average Reduction log Δcfu MRSA/thigh after 26 h: x (x = 0-2)
[2]
  Minimum Inhibitory Concentration (MIC) Staph. aureus ATCC43300: xxx (xxx = 0.1-<1)
[3]
  Minimum Inhibitory Concentration (MIC) E. faecium ATCC51559: x (x = >4)
[4]
  Minimum Inhibitory Concentration (MIC) S. pneumoniae ATCC 700677: xx (xx = 1-4)

## CCCCCCCCCC(=O)N[C@@H](Cc1c[nH]c2ccccc12)C(=O)N[C@H](CC(N)=O)C(=O)N[C@@H](CC(=O)O)C(=O)N[C@@H]1C(=O)NCC(=O)N[C@@H](CCCN)C(=O)N[C@@H](CC(=O)O)C(=O)N[C@H](C)C(=O)N[C@@H](CC(=O)O)C(=O)NCC(=O)N[C@H](CO)C(=O)N[C@@H]([C@H](C)CC(=O)O)C(=O)N[C@@H](CC(=O)c2ccccc2N)C(=O)O[C@@H]1C [Daptomycin, reference compound]
[1]; single subcutaneous dose 50 mg/kg
  Average Reduction log Δcfu MRSA/thigh after 26 h: xxx (xxx = 4-6)

## CCCCCCCCC(=O)N[C@@H](CCCCN)C(=O)N[C@@H](CCCCN)C(=O)N[C@@H](CCCCNC(=O)[C@H]1NC(=O)[C@H]2NC(=O)[C@H](NC(=O)[C@@H]3NC(=O)[C@H](CC(N)=O)NC(=O)[C@H](NC(=O)[C@@H](CC(C)C)NC)[C@H](O)c4ccc(c(Cl)c4)Oc4cc3cc(c4O[C@@H]3O[C@H](CO)[C@@H](O)[C@H](O)[C@H]3O[C@H]3C[C@](C)(N)[C@H](O)[C@H](C)O3)Oc3ccc(cc3Cl)[C@H]2O)c2ccc(O)c(c2)-c2c(O)cc(O)cc21)C(=O)O [MCC_005226]
[1]; [5]
  Average Reduction log Δcfu MRSA/thigh after 26 h: x (x = 0-2)
[2]
  Minimum Inhibitory Concentration (MIC) Staph. aureus ATCC43300: xxx (xxx = 0.1-<1)
[3]
  Minimum Inhibitory Concentration (MIC) E. faecium ATCC51559: x (x = >4)
[4]
  Minimum Inhibitory Concentration (MIC) S. pneumoniae ATCC 700677: xxx (xxx = 0.1-<1)

## CCCCCCCCCC(=O)N[C@@H](CCCNC(=N)N)C(=O)NCCCNC(=O)[C@H]1NC(=O)[C@H]2NC(=O)[C@H](NC(=O)[C@@H]3NC(=O)[C@H](CC(N)=O)NC(=O)[C@H](NC(=O)[C@@H](CC(C)C)NC)[C@H](O)c4ccc(c(Cl)c4)Oc4cc3cc(c4O[C@@H]3O[C@H](CO)[C@@H](O)[C@H](O)[C@H]3O[C@H]3C[C@](C)(N)[C@H](O)[C@H](C)O3)Oc3ccc(cc3Cl)[C@H]2O)c2ccc(O)c(c2)-c2c(O)cc(O)cc21 [MCC_005481]
[1]; [5]
  Average Reduction log Δcfu MRSA/thigh after 26 h: xxx (xxx = 4-6)
[2]
  Minimum Inhibitory Concentration (MIC) Staph. aureus ATCC43300: xxxxx (xxxxx = <0.01)
[3]
  Minimum Inhibitory Concentration (MIC) E. faecium ATCC51559: x (x = >4)
[4]
  Minimum Inhibitory Concentration (MIC) S. pneumoniae ATCC 700677: xxxx (xxxx = 0.01-<0.1)

## CNC(=O)[C@H](CCCCNC(=O)[C@H]1NC(=O)[C@H]2NC(=O)[C@H](NC(=O)[C@@H]3NC(=O)[C@H](CC(N)=O)NC(=O)[C@H](NC(=O)[C@@H](CC(C)C)NC)[C@H](O)c4ccc(c(Cl)c4)Oc4cc3cc(c4O[C@@H]3O[C@H](CO)[C@@H](O)[C@H](O)[C@H]3O[C@H]3C[C@](C)(N)[C@H](O)[C@H](C)O3)Oc3ccc(cc3Cl)[C@H]2O)c2ccc(O)c(c2)-c2c(O)cc(O)cc21)NC(=O)[C@H](CCCCN)NC(=O)[C@H](CCCCN)NC(=O)[C@H](CCCCNC(=O)c1ccc(Oc2ccccc2)cc1)NC(=O)c1ccc(Oc2ccccc2)cc1 [MCC_000310]
[1]; single subcutaneous dose 25 mg/kg
  Average Reduction log Δcfu MRSA/thigh after 26 h: x (x = 0-2)
[2]
  Minimum Inhibitory Concentration (MIC) Staph. aureus ATCC43300: xxxxx (xxxxx = <0.01)
[3]
  Minimum Inhibitory Concentration (MIC) E. faecium ATCC51559: xxx (xxx = 0.1-<1)
[4]
  Minimum Inhibitory Concentration (MIC) S. pneumoniae ATCC 700677: xxxxx (xxxxx = <0.01)

## CCCCCCCCCC(=O)N[C@@H](CCCCN)C(=O)N[C@@H](CCCCN)C(=O)NCCNC(=O)[C@H]1NC(=O)[C@H]2NC(=O)[C@H](NC(=O)[C@@H]3NC(=O)[C@H](CC(N)=O)NC(=O)[C@H](NC(=O)[C@@H](CC(C)C)NC)[C@H](O)c4ccc(c(Cl)c4)Oc4cc3cc(c4O[C@@H]3O[C@H](CO)[C@@H](O)[C@H](O)[C@H]3O[C@H]3C[C@](C)(N)[C@H](O)[C@H](C)O3)Oc3ccc(cc3Cl)[C@H]2O)c2ccc(O)c(c2)-c2c(O)cc(O)cc21 [MCC_005166]
[1]; [5]
  Average Reduction log Δcfu MRSA/thigh after 26 h: xxx (xxx = 4-6)
[2]
  Minimum Inhibitory Concentration (MIC) Staph. aureus ATCC43300: xxxx (xxxx = 0.01-<0.1)
[3]
  Minimum Inhibitory Concentration (MIC) E. faecium ATCC51559: x (x = >4)
[4]
  Minimum Inhibitory Concentration (MIC) S. pneumoniae ATCC 700677: xxxx (xxxx = 0.01-<0.1)

## CCCCCCCCC(=O)N[C@@H](CCCCN)C(=O)NCCCNC(=O)[C@H]1NC(=O)[C@H]2NC(=O)[C@H](NC(=O)[C@@H]3NC(=O)[C@H](CC(N)=O)NC(=O)[C@H](NC(=O)[C@@H](CC(C)C)NC)[C@H](O)c4ccc(c(Cl)c4)Oc4cc3cc(c4O[C@@H]3O[C@H](CO)[C@@H](O)[C@H](O)[C@H]3O[C@H]3C[C@](C)(N)[C@H](O)[C@H](C)O3)Oc3ccc(cc3Cl)[C@H]2O)c2ccc(O)c(c2)-c2c(O)cc(O)cc21 [MCC_005203]
[1]; [5]
  Average Reduction log Δcfu MRSA/thigh after 26 h: xxx (xxx = 4-6)

## CCCCCCCCC(=O)NC(CCCNC(=N)N)C(=O)NCCCNC(=O)C1NC(=O)C2NC(=O)C(NC(=O)C3NC(=O)C(CC(N)=O)NC(=O)C(NC(=O)C(CC(C)C)NC)C(O)c4ccc(c(Cl)c4)Oc4cc3cc(c4OC3OC(CO)C(O)C(O)C3OC3CC(C)(N)C(O)C(C)O3)Oc3ccc(cc3Cl)C2O)c2ccc(O)c(c2)-c2c(O)cc(O)cc21 (stereo not shown) [MCC_007336]
[1]; [5]
  Average Reduction log Δcfu MRSA/thigh after 26 h: xxxx (xxxx = >6)

## CCCCCCCCCC(=O)N[C@@H](CCCNC(=N)N)C(=O)N[C@@H](CCCCNC(=O)[C@H]1NC(=O)[C@H]2NC(=O)[C@H](NC(=O)[C@@H]3NC(=O)[C@H](CC(N)=O)NC(=O)[C@H](NC(=O)[C@@H](CC(C)C)NC)[C@H](O)c4ccc(c(Cl)c4)Oc4cc3cc(c4O[C@@H]3O[C@H](CO)[C@@H](O)[C@H](O)[C@H]3O[C@H]3C[C@](C)(N)[C@H](O)[C@H](C)O3)Oc3ccc(cc3Cl)[C@H]2O)c2ccc(O)c(c2)-c2c(O)cc(O)cc21)C(=O)O [MCC_005530]
[1]; [5]
  Average Reduction log Δcfu MRSA/thigh after 26 h: xxx (xxx = 4-6)
